Source: PubChem BioAssay AID1745844 (Carcinogenic Potency Database (CPDB), 2022)

System: rodent lifetime carcinogenesis bioassay, tumor incidence TD50
Assay: chronic cancer bioassays in animals – CPDB, compiled studies (AID 1745844)
Conditions: in feed

`Nc1c(Br)cc(Br)c2c1C(=O)c1ccccc1C2=O` was tested, and the TD50 (mouse, strain B6C3F1, females, site: any site (literature study), lesion: several types, types named in the paper, dosed 104 weeks, study length 104 weeks) was 1030 mg/kg/day, the TD50 (mouse, strain B6C3F1, females, site: forestomach + liver + lung, lesion: squamous-cell carcinoma + squamous-cell papilloma + hepatocellular adenoma + hepatocellular carcinoma + alveolar/bronchiolar ade, dosed 104 weeks, study length 104 weeks) was 546 mg/kg/day and the TD50 (mouse, strain B6C3F1, females, site: forestomach, lesion: squamous-cell carcinoma + squamous-cell papilloma, dosed 104 weeks, study length 104 weeks) was 1230 mg/kg/day. For the same molecule, the TD50 (mouse, strain B6C3F1, females, site: forestomach, lesion: squamous-cell carcinoma, dosed 104 weeks, study length 104 weeks) was 3930 mg/kg/day, the TD50 (mouse, strain B6C3F1, females, site: forestomach, lesion: squamous-cell papilloma, dosed 104 weeks, study length 104 weeks) was 1760 mg/kg/day and the TD50 (mouse, strain B6C3F1, females, site: liver, lesion: hepatocellular adenoma + hepatoblastoma + hepatocellular carcinoma, dosed 104 weeks, study length 104 weeks) was 490 mg/kg/day. It also gave a TD50 (mouse, strain B6C3F1, females, site: liver, lesion: hepatocellular adenoma + hepatocellular carcinoma, dosed 104 weeks, study length 104 weeks) of 490 mg/kg/day, a TD50 (mouse, strain B6C3F1, females, site: liver, lesion: hepatocellular adenoma, dosed 104 weeks, study length 104 weeks) of 515 mg/kg/day and a TD50 (mouse, strain B6C3F1, females, site: liver, lesion: hepatocellular carcinoma, dosed 104 weeks, study length 104 weeks) of 1530 mg/kg/day. For the same molecule, the TD50 (mouse, strain B6C3F1, females, site: lung, lesion: alveolar/bronchiolar adenoma + alveolar/bronchiolar carcinoma, dosed 104 weeks, study length 104 weeks) was 1990 mg/kg/day, the TD50 (mouse, strain B6C3F1, females, site: lung, lesion: alveolar/bronchiolar adenoma, dosed 104 weeks, study length 104 weeks) was 1990 mg/kg/day and the TD50 (mouse, strain B6C3F1, females, site: pituitary gland, lesion: pars distalis adenoma, dosed 104 weeks, study length 104 weeks) was 3750 mg/kg/day. It also gave a TD50 (mouse, strain B6C3F1, females, site: uterus, lesion: endometrial stromal polyp + endometrial stromal sarcoma, dosed 104 weeks, study length 104 weeks) of 6820 mg/kg/day, a TD50 (mouse, strain B6C3F1, males, site: any site (literature study), lesion: several types, types named in the paper, dosed 103 weeks, study length 104 weeks) of 566 mg/kg/day and a TD50 (mouse, strain B6C3F1, males, site: forestomach + liver + lung, lesion: squamous-cell carcinoma + squamous-cell papilloma + hepatocellular adenoma + hepatoblastoma + hepatocellular carcinoma + alveolar/, dosed 103 weeks, study length 104 weeks) of 465 mg/kg/day. For the same molecule, the TD50 (mouse, strain B6C3F1, males, site: forestomach, lesion: squamous-cell carcinoma + squamous-cell papilloma, dosed 103 weeks, study length 104 weeks) was 1130 mg/kg/day, the TD50 (mouse, strain B6C3F1, males, site: forestomach, lesion: squamous-cell carcinoma, dosed 103 weeks, study length 104 weeks) was 2730 mg/kg/day and the TD50 (mouse, strain B6C3F1, males, site: forestomach, lesion: squamous-cell papilloma, dosed 103 weeks, study length 104 weeks) was 1680 mg/kg/day. It also gave a TD50 (mouse, strain B6C3F1, males, site: liver, lesion: hepatoblastoma + hepatocellular carcinoma, dosed 103 weeks, study length 104 weeks) of 1870 mg/kg/day, a TD50 (mouse, strain B6C3F1, males, site: liver, lesion: hepatoblastoma, dosed 103 weeks, study length 104 weeks) of 9250 mg/kg/day and a TD50 (mouse, strain B6C3F1, males, site: liver, lesion: hepatocellular adenoma + hepatoblastoma + hepatocellular carcinoma, dosed 103 weeks, study length 104 weeks) of 467 mg/kg/day. For the same molecule, the TD50 (mouse, strain B6C3F1, males, site: liver, lesion: hepatocellular adenoma + hepatocellular carcinoma, dosed 103 weeks, study length 104 weeks) was 467 mg/kg/day, the TD50 (mouse, strain B6C3F1, males, site: liver, lesion: hepatocellular adenoma, dosed 103 weeks, study length 104 weeks) was 464 mg/kg/day and the TD50 (mouse, strain B6C3F1, males, site: liver, lesion: hepatocellular carcinoma, dosed 103 weeks, study length 104 weeks) was 2240 mg/kg/day. For the same molecule, the TD50 (mouse, strain B6C3F1, males, site: lung, lesion: alveolar/bronchiolar adenoma + alveolar/bronchiolar carcinoma, dosed 103 weeks, study length 104 weeks) was 817 mg/kg/day, the TD50 (mouse, strain B6C3F1, males, site: lung, lesion: alveolar/bronchiolar adenoma, dosed 103 weeks, study length 104 weeks) was 831 mg/kg/day and the TD50 (rat, strain Fischer 344, females, site: any site (literature study), lesion: several types, types named in the paper, dosed 40 weeks, study length 66 weeks) was 135 mg/kg/day. The TD50 (rat, strain Fischer 344, females, site: any site (literature study), lesion: several types, types named in the paper, dosed 66 weeks, study length 66 weeks) was 147 mg/kg/day, the TD50 (rat, strain Fischer 344, females, site: any site (literature study), lesion: several types, types named in the paper, dosed 103 weeks, study length 104 weeks) was 160 mg/kg/day and the TD50 (rat, strain Fischer 344, females, site: cecum + colon + kidney + liver + rectum + urinary bladder, lesion: polypoid adenoma + adenocarcinoma + tubule adenoma + tubule carcinoma + hepatocholangiocarcinoma + hepatocellular adenoma + hepatoce, dosed 103 weeks, study length 104 weeks) was 31 mg/kg/day. The TD50 (rat, strain Fischer 344, females, site: cecum + colon + rectum, lesion: polypoid adenoma, dosed 40 weeks, study length 66 weeks) was 217 mg/kg/day, the TD50 (rat, strain Fischer 344, females, site: cecum + colon + rectum, lesion: polypoid adenoma, dosed 66 weeks, study length 66 weeks) was 1270 mg/kg/day and the TD50 (rat, strain Fischer 344, females, site: cecum + colon + rectum, lesion: polypoid adenoma, dosed 103 weeks, study length 104 weeks) was 72.9 mg/kg/day. The TD50 (rat, strain Fischer 344, females, site: colon + rectum, lesion: adenocarcinoma, dosed 103 weeks, study length 104 weeks) was 414 mg/kg/day, the TD50 (rat, strain Fischer 344, females, site: kidney, lesion: tubule adenoma + tubule carcinoma, dosed 40 weeks, study length 66 weeks) was 418 mg/kg/day and the TD50 (rat, strain Fischer 344, females, site: kidney, lesion: tubule adenoma + tubule carcinoma, dosed 66 weeks, study length 66 weeks) was 1520 mg/kg/day. The TD50 (rat, strain Fischer 344, females, site: kidney, lesion: tubule adenoma + tubule carcinoma, dosed 103 weeks, study length 104 weeks) was 388 mg/kg/day, the TD50 (rat, strain Fischer 344, females, site: kidney, lesion: tubule adenoma, dosed 40 weeks, study length 66 weeks) was 418 mg/kg/day and the TD50 (rat, strain Fischer 344, females, site: kidney, lesion: tubule adenoma, dosed 66 weeks, study length 66 weeks) was 1520 mg/kg/day. It also gave a TD50 (rat, strain Fischer 344, females, site: kidney, lesion: tubule adenoma, dosed 103 weeks, study length 104 weeks) of 388 mg/kg/day, a TD50 (rat, strain Fischer 344, females, site: liver, lesion: hepatocellular adenoma + hepatoblastoma + hepatocellular carcinoma, dosed 40 weeks, study length 66 weeks) of 121 mg/kg/day and a TD50 (rat, strain Fischer 344, females, site: liver, lesion: hepatocellular adenoma + hepatoblastoma + hepatocellular carcinoma, dosed 66 weeks, study length 66 weeks) of 121 mg/kg/day. The TD50 (rat, strain Fischer 344, females, site: liver, lesion: hepatocellular adenoma + hepatoblastoma + hepatocellular carcinoma, dosed 103 weeks, study length 104 weeks) was 40.1 mg/kg/day, the TD50 (rat, strain Fischer 344, females, site: liver, lesion: hepatocellular adenoma + hepatocellular carcinoma, dosed 40 weeks, study length 66 weeks) was 121 mg/kg/day and the TD50 (rat, strain Fischer 344, females, site: liver, lesion: hepatocellular adenoma + hepatocellular carcinoma, dosed 66 weeks, study length 66 weeks) was 121 mg/kg/day. The TD50 (rat, strain Fischer 344, females, site: liver, lesion: hepatocellular adenoma + hepatocellular carcinoma, dosed 103 weeks, study length 104 weeks) was 40.1 mg/kg/day, the TD50 (rat, strain Fischer 344, females, site: liver, lesion: hepatocellular adenoma, dosed 40 weeks, study length 66 weeks) was 191 mg/kg/day and the TD50 (rat, strain Fischer 344, females, site: liver, lesion: hepatocellular adenoma, dosed 66 weeks, study length 66 weeks) was 219 mg/kg/day. It also gave a TD50 (rat, strain Fischer 344, females, site: liver, lesion: hepatocellular adenoma, dosed 103 weeks, study length 104 weeks) of 53.9 mg/kg/day, a TD50 (rat, strain Fischer 344, females, site: liver, lesion: hepatocellular carcinoma, dosed 40 weeks, study length 66 weeks) of 167 mg/kg/day and a TD50 (rat, strain Fischer 344, females, site: liver, lesion: hepatocellular carcinoma, dosed 66 weeks, study length 66 weeks) of 124 mg/kg/day. It also gave a TD50 (rat, strain Fischer 344, females, site: liver, lesion: hepatocellular carcinoma, dosed 103 weeks, study length 104 weeks) of 88.4 mg/kg/day.
